Assay: xn = mol fraction of the nth substance listed
Details: 101.33 kPa, Liquid

C[S+](C)[O-] [dimethyl sulfoxide] + c1ccccc1
Details | mass density [kg/m3]
293.15 K, x2 = 0.0589 | 1084.47
293.15 K, x2 = 0.1255 | 1067.5
293.15 K, x2 = 0.1852 | 1052.58
293.15 K, x2 = 0.2561 | 1035.37
293.15 K, x2 = 0.2934 | 1026.52
293.15 K, x2 = 0.3345 | 1016.91
293.15 K, x2 = 0.3782 | 1006.87
293.15 K, x2 = 0.4312 | 994.89
293.15 K, x2 = 0.4757 | 985.02
293.15 K, x2 = 0.5963 | 958.97
293.15 K, x2 = 0.6875 | 939.81
293.15 K, x2 = 0.7369 | 929.61
293.15 K, x2 = 0.8637 | 903.71
293.15 K, x2 = 0.9562 | 885.02
303.15 K, x2 = 0.0596 | 1075.16
303.15 K, x2 = 0.1345 | 1056.18
303.15 K, x2 = 0.194 | 1041.49
303.15 K, x2 = 0.2473 | 1028.63
303.15 K, x2 = 0.2893 | 1018.74
303.15 K, x2 = 0.3465 | 1005.44
303.15 K, x2 = 0.4213 | 988.61
303.15 K, x2 = 0.4835 | 974.94
303.15 K, x2 = 0.5431 | 962.12
303.15 K, x2 = 0.5968 | 950.76
303.15 K, x2 = 0.6763 | 934.26
303.15 K, x2 = 0.7781 | 913.49
303.15 K, x2 = 0.8511 | 898.8
303.15 K, x2 = 0.9542 | 878.27
313.15 K, x2 = 0.059 | 1064.91
313.15 K, x2 = 0.1267 | 1047.76
313.15 K, x2 = 0.1873 | 1032.78
313.15 K, x2 = 0.2676 | 1013.53
313.15 K, x2 = 0.2933 | 1007.51
313.15 K, x2 = 0.3378 | 997.22
313.15 K, x2 = 0.4321 | 976.04
313.15 K, x2 = 0.4752 | 966.67
313.15 K, x2 = 0.5514 | 950.39
313.15 K, x2 = 0.6011 | 939.97
313.15 K, x2 = 0.6837 | 923
313.15 K, x2 = 0.7653 | 906.53
313.15 K, x2 = 0.8681 | 886.1
313.15 K, x2 = 0.9499 | 870
323.15 K, x2 = 0.0602 | 1054.55
323.15 K, x2 = 0.1257 | 1038.36
323.15 K, x2 = 0.1833 | 1024.43
323.15 K, x2 = 0.2512 | 1008.48
323.15 K, x2 = 0.3294 | 990.67
323.15 K, x2 = 0.3931 | 976.6
323.15 K, x2 = 0.4615 | 961.88
323.15 K, x2 = 0.5232 | 948.95
323.15 K, x2 = 0.5972 | 933.77
323.15 K, x2 = 0.6502 | 923.09
323.15 K, x2 = 0.7149 | 910.25
323.15 K, x2 = 0.7896 | 895.64
323.15 K, x2 = 0.8788 | 878.39
323.15 K, x2 = 0.9556 | 863.66
333.15 K, x2 = 0.0593 | 1044.75
333.15 K, x2 = 0.1279 | 1028.18
333.15 K, x2 = 0.1801 | 1015.83
333.15 K, x2 = 0.2566 | 998.31
333.15 K, x2 = 0.3263 | 982.84
333.15 K, x2 = 0.3862 | 969.9
333.15 K, x2 = 0.4523 | 955.99
333.15 K, x2 = 0.5213 | 941.87
333.15 K, x2 = 0.5869 | 928.72
333.15 K, x2 = 0.6532 | 915.7
333.15 K, x2 = 0.7256 | 901.71
333.15 K, x2 = 0.7959 | 888.33
333.15 K, x2 = 0.8864 | 871.29
333.15 K, x2 = 0.9116 | 866.58
343.15 K, x2 = 0.0593 | 1034.67
343.15 K, x2 = 0.1356 | 1016.68
343.15 K, x2 = 0.2182 | 997.86
343.15 K, x2 = 0.2636 | 987.78
343.15 K, x2 = 0.3296 | 973.51
343.15 K, x2 = 0.3938 | 960.01
343.15 K, x2 = 0.4686 | 944.74
343.15 K, x2 = 0.5213 | 934.26
343.15 K, x2 = 0.5769 | 923.38
343.15 K, x2 = 0.6623 | 907.03
343.15 K, x2 = 0.7385 | 892.7
343.15 K, x2 = 0.7801 | 884.99
343.15 K, x2 = 0.8569 | 870.86
343.15 K, x2 = 0.9503 | 853.81
353.15 K, x2 = 0.058 | 1024.84
353.15 K, x2 = 0.1585 | 1001.73
353.15 K, x2 = 0.2335 | 985.09
353.15 K, x2 = 0.3065 | 969.42
353.15 K, x2 = 0.3765 | 954.93
353.15 K, x2 = 0.4187 | 946.35
353.15 K, x2 = 0.4682 | 936.49
353.15 K, x2 = 0.5242 | 925.57
353.15 K, x2 = 0.5912 | 912.8
353.15 K, x2 = 0.6404 | 903.56
353.15 K, x2 = 0.7556 | 882.4
353.15 K, x2 = 0.8024 | 873.93
353.15 K, x2 = 0.8701 | 861.79
353.15 K, x2 = 0.9284 | 851.4

Source: the NIST ThermoML archive (doi:10.1016/j.jct.2004.07.024)
